Laboratory results published in ChEMBL document CHEMBL1201862, “PubChem BioAssay data set” (2004).
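A five-concentration, 48-hour dose response in 96-well plates underlies each endpoint, interpolated linearly between surrounding concentrations. GI50 = concentration required for 50% inhibition of growth.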 The source made the active and inactive calls. No stated cut-off is given here; in the data, active = GI50 up to about 1.1 µM and inactive = higher.

Experiments:
Experiment in all cases: NCI anticancer screen, dose series, 48 h
ACHN = test system: ACHN
CCRF-CEM = test system: CCRF-CEM
HCT-116 = test system: HCT-116
HL-60 = test system: HL-60
HOP-62 = test system: HOP-62
HT-29 = test system: HT-29
IGROV-1 = test system: IGROV-1
LOX IMVI = test system: LOX IMVI
NCI-H23 = test system: NCI-H23
NCI-H522 = test system: NCI-H522
RPMI-8226 = test system: RPMI-8226
RXF 393 = test system: RXF 393
SK-MEL-28 = test system: SK-MEL-28
TK-10 = test system: TK-10
UACC-257 = test system: UACC-257
UO-31 = test system: UO-31
OVCAR-4 = test system: OVCAR-4

Measured: GI50

CN(C)c1ccc(-c2cc(O)c3ccccc3n2)cc1
inactive: ACHN > 100 µM | CCRF-CEM > 100 µM | HCT-116 > 100 µM | HL-60 > 100 µM | HOP-62 > 100 µM | HT-29 > 100 µM | IGROV-1 > 100 µM | LOX IMVI > 100 µM | NCI-H23 > 100 µM | NCI-H522 > 100 µM | RPMI-8226 > 100 µM | RXF 393 > 100 µM | SK-MEL-28 > 100 µM | TK-10 > 100 µM | UACC-257 > 100 µM | UO-31 > 100 µM

Cc1ccccc1C1=C(C(=O)Nc2ccc(Cl)c(Cl)c2)NC(=S)NC1N (stereo not given)
inactive: ACHN > 100 µM | CCRF-CEM > 100 µM | HCT-116 > 100 µM | HT-29 > 100 µM | IGROV-1 > 100 µM | LOX IMVI > 100 µM | NCI-H23 > 100 µM | NCI-H522 > 100 µM | OVCAR-4 > 100 µM | RPMI-8226 > 100 µM | RXF 393 > 100 µM | SK-MEL-28 > 100 µM | TK-10 > 100 µM | UACC-257 > 100 µM | UO-31 > 100 µM

CCSc1nc2n(c(=S)n1)CCN2C
inactive: ACHN 19.1 µM | HCT-116 15.7 µM | HL-60 16.4 µM | HOP-62 28.6 µM | HT-29 17.4 µM | IGROV-1 17.7 µM | LOX IMVI 18.4 µM | NCI-H522 5.4 µM | OVCAR-4 18.5 µM | RPMI-8226 22 µM | RXF 393 7.89 µM | SK-MEL-28 20.1 µM | UACC-257 12.1 µM | UO-31 16.3 µM

O=C1[C@H]2C(c3ccccc3)=NN(C(=O)c3ccccc3)[C@H]2C(=O)N1c1ccccc1
inactive: ACHN > 100 µM | CCRF-CEM > 100 µM | HCT-116 > 100 µM | HOP-62 > 100 µM | HT-29 > 100 µM | IGROV-1 > 100 µM | LOX IMVI > 100 µM | NCI-H23 > 100 µM | NCI-H522 > 100 µM | RPMI-8226 > 100 µM | RXF 393 > 100 µM | SK-MEL-28 > 100 µM | TK-10 > 100 µM | UACC-257 > 100 µM | UO-31 > 100 µM

Cc1ccccc1NC(=O)CC(=O)NNCC(=O)Nc1nnc(-c2ccccc2)s1
inactive: ACHN 54.2 µM | HCT-116 64.9 µM | HL-60 31.5 µM | HOP-62 42.9 µM | HT-29 > 100 µM | IGROV-1 > 100 µM | LOX IMVI 51.3 µM | NCI-H23 > 100 µM | NCI-H522 65.2 µM | OVCAR-4 18 µM | RPMI-8226 25 µM | SK-MEL-28 > 100 µM | TK-10 42.7 µM | UACC-257 > 100 µM | UO-31 45 µM
